Key:
Assay type in all cases: biochemical
PLK1 = PLK1 (Homo sapiens, UniProt P53350); experiment: Kinase panel screening; conditions: single dose of 10 μM, read-out: % inhibition rate
PKA = PKA (Homo sapiens, UniProt P17612); experiment: Kinase panel screening; conditions: single dose of 10 μM, read-out: % inhibition rate
CDK4/cyclin D1 = CDK4/cyclin D1 (Homo sapiens, UniProt P11802); experiment: Kinase panel screening; conditions: single dose of 10 μM, read-out: % inhibition rate
LCK = LCK (Homo sapiens, UniProt P06239); experiment: Kinase panel screening; conditions: single dose of 10 μM, read-out: % inhibition rate
ABL1 = ABL1 (Homo sapiens, UniProt P00519); experiment: Kinase panel screening; conditions: single dose of 10 μM, read-out: % inhibition rate
c-Src = c-Src (Homo sapiens, UniProt P12931); experiment: Kinase panel screening; conditions: single dose of 10 μM, read-out: % inhibition rate
Aurora A = Aurora A (Homo sapiens, UniProt O14965); experiment: Kinase panel screening; conditions: single dose of 10 μM, read-out: % inhibition rate
AXL = AXL (Homo sapiens, UniProt P30530); experiment: Kinase panel screening; conditions: single dose of 10 μM, read-out: % inhibition rate
FLT3-ITD = FLT3-ITD (Homo sapiens, UniProt P36888); experiment: Kinase panel screening; conditions: single dose of 10 μM
AKT1 = AKT1 (Homo sapiens, UniProt P31749); experiment: Kinase panel screening; conditions: single dose of 10 μM, read-out: % inhibition rate
ALK = ALK (Homo sapiens, UniProt Q9UM73); experiment: Kinase panel screening; conditions: single dose of 10 μM, read-out: % inhibition rate
ALK, sequence (Q9UM73 19-1620, species assumed): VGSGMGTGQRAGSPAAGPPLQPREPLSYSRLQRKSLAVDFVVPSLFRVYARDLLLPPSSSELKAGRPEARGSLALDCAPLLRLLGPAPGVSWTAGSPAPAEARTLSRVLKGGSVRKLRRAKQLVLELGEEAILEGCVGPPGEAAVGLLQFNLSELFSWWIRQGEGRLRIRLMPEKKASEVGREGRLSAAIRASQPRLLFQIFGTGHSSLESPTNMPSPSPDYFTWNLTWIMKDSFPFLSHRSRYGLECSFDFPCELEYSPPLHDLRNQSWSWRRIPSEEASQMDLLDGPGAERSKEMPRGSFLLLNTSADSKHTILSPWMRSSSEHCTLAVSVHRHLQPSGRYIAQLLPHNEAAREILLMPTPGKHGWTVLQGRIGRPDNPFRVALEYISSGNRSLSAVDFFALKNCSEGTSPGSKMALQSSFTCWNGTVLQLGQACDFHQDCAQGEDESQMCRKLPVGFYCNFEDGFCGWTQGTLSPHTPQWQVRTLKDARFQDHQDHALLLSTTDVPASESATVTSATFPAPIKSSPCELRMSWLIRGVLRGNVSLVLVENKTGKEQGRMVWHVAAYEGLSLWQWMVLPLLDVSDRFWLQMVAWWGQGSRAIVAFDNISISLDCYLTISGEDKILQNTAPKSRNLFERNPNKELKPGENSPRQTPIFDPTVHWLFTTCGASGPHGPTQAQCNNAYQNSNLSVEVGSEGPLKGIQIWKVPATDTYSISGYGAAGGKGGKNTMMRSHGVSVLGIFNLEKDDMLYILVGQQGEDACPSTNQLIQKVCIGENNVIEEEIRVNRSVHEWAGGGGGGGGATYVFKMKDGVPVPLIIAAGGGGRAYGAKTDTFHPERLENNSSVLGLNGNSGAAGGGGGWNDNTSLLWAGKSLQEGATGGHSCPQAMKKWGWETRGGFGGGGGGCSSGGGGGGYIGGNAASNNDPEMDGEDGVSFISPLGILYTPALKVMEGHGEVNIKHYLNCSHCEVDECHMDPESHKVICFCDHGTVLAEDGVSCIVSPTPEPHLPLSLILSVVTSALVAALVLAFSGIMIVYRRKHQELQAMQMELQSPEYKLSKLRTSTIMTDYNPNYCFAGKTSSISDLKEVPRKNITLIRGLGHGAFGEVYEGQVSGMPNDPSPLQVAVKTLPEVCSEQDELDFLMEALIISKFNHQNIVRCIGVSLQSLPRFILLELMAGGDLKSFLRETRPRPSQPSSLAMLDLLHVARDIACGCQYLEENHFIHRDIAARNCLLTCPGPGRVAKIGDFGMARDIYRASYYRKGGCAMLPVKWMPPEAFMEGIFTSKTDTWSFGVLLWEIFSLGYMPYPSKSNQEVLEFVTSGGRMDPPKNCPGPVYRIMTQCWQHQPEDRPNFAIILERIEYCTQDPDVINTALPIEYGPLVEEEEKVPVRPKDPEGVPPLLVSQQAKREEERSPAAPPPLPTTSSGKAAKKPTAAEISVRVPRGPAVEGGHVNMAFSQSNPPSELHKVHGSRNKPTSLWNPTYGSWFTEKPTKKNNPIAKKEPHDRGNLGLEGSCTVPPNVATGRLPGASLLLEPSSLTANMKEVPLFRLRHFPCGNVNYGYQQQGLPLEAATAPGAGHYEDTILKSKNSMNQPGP

FLT3 = target: T1, FLT3 (Homo sapiens, UniProt P36888); experiment: Kinase panel screening; conditions: single dose of 10 μM
T1 sequence (P36888 27-993): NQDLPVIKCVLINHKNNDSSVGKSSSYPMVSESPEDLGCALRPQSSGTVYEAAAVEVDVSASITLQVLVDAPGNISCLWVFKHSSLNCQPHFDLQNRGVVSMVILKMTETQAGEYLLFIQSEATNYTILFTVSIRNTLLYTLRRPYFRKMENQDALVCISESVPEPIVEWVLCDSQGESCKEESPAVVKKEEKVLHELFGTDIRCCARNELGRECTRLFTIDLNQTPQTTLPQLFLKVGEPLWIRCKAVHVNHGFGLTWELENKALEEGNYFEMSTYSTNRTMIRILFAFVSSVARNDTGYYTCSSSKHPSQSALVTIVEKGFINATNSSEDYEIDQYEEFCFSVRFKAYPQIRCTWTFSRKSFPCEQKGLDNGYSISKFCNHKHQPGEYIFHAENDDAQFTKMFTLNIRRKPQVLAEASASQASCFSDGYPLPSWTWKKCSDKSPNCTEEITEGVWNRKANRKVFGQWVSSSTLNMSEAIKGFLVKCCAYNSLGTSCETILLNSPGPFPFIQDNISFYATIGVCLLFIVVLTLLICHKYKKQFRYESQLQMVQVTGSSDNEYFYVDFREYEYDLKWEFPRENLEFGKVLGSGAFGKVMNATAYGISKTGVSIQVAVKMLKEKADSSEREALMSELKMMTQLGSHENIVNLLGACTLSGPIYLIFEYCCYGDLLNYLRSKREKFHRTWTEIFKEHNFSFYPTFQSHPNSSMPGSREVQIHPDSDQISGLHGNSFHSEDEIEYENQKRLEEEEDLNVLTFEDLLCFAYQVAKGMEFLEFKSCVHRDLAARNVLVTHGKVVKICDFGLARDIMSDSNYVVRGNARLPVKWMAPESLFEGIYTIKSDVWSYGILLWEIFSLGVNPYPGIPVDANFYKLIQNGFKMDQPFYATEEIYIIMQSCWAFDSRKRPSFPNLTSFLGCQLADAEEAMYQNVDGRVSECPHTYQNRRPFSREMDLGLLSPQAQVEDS

JAK3 = JAK3 (Homo sapiens, UniProt P52333); experiment: Kinase panel screening; conditions: single dose of 10 μM, read-out: % inhibition rate
JNK3 = JNK3 (Homo sapiens, UniProt P53779); experiment: Kinase panel screening; conditions: single dose of 10 μM, read-out: % inhibition rate
JNK3, sequence (P53779 whole entry, species assumed): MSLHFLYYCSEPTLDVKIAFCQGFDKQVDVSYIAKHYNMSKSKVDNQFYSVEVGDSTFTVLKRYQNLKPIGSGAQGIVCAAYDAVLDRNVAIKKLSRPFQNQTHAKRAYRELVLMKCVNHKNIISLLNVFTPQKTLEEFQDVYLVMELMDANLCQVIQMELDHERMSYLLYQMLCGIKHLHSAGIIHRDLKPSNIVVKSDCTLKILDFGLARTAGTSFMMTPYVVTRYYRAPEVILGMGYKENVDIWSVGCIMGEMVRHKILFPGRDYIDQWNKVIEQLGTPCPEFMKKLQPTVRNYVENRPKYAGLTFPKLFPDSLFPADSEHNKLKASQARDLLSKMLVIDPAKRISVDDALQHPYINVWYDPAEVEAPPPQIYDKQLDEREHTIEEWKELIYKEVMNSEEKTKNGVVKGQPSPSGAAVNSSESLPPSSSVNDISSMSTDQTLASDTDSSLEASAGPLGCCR

BTK = BTK (Homo sapiens, UniProt Q06187); experiment: Kinase panel screening; conditions: single dose of 10 μM, read-out: % inhibition rate
ERK1 = ERK1 (Homo sapiens, UniProt P27361); experiment: Kinase panel screening; conditions: single dose of 10 μM, read-out: % inhibition rate
EGFR = EGFR (Homo sapiens, UniProt P00533); experiment: Kinase panel screening; conditions: single dose of 10 μM, read-out: % inhibition rate
EGFR, sequence (P00533 25-1210, species assumed): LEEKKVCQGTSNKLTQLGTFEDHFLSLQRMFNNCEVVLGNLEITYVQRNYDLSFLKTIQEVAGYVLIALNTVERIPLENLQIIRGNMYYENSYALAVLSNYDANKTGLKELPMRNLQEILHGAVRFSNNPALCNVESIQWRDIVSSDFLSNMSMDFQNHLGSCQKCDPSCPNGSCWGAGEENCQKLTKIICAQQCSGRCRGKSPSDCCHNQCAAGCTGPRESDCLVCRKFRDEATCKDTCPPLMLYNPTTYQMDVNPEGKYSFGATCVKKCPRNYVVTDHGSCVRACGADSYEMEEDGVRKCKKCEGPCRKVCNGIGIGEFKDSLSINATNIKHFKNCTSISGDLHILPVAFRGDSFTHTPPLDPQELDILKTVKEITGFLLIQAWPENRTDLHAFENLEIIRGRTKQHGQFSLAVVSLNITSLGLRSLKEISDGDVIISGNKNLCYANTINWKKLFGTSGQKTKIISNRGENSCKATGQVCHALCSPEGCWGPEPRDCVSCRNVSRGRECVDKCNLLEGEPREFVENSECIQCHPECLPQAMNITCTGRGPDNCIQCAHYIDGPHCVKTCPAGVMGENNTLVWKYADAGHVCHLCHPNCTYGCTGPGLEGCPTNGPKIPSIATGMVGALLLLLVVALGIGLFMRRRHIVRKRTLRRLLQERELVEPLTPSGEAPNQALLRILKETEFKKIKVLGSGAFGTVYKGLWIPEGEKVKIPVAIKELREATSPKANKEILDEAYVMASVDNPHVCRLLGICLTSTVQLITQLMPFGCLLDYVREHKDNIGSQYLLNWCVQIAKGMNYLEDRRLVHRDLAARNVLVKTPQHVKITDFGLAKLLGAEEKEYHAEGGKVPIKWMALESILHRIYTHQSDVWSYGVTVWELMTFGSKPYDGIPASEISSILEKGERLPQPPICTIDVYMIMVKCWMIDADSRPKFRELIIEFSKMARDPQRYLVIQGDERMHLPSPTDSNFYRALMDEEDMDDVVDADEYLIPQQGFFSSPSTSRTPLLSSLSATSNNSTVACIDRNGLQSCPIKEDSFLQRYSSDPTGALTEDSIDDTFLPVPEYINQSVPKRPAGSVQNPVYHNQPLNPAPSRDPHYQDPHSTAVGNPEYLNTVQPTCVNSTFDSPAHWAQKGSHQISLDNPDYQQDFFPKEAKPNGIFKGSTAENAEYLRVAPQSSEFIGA

P38a/MAPK14 = P38a/MAPK14 (Homo sapiens, UniProt Q16539); experiment: Kinase panel screening; conditions: single dose of 10 μM, read-out: % inhibition rate
FLT1/VEGFR1 = FLT1/VEGFR1 (Homo sapiens, UniProt P17948); experiment: Kinase panel screening; conditions: single dose of 10 μM, read-out: % inhibition rate
CAMKK1 = CAMKK1 (Homo sapiens, UniProt Q8N5S9); experiment: Kinase panel screening; conditions: single dose of 10 μM, read-out: % inhibition rate
LYN = LYN (Homo sapiens, UniProt P07948); experiment: Kinase panel screening; conditions: single dose of 10 μM, read-out: % inhibition rate
FMS = FMS (Homo sapiens, UniProt P07333); experiment: Kinase panel screening; conditions: single dose of 10 μM, read-out: % inhibition rate
[1] = target: FLT3 (Y591_V592 ins VDFREYEYD) (Homo sapiens, UniProt P36888, INS591VDFREYEYD); experiment: Inhibitory activity against FLT3 mutants; conditions: insertion of 9 amino acids
Excerpt: (§1) Subsequently, the inhibitory activity of Compound 7d against other different FLT3 mutants was additionally investigated and is shown in Table 2. […] Further, Compound 7d was also strong against FLT3 mutations located in the TKD.

FLT3 (F594_R595 ins EY) = FLT3 (F594_R595 ins EY) (Homo sapiens, UniProt P36888, INS594EY); experiment: Inhibitory activity against FLT3 mutants; conditions: insertion of 2 amino acids
Excerpt: as §1

FLT3 (D835Y) = FLT3 (D835Y) (Homo sapiens, UniProt P36888, D835Y); experiment: Inhibitory activity against FLT3 mutants
Excerpt: as §1

FLT3 (F594_R595 ins R) = FLT3 (F594_R595 ins R) (Homo sapiens, UniProt P36888, INS594R); experiment: Inhibitory activity against FLT3 mutants; conditions: insertion of 1 amino acid
Excerpt: as §1

c-Kit = c-Kit (Homo sapiens, UniProt P10721); experiment: Kinase panel screening; conditions: single dose of 10 μM
c-Kit, sequence (P10721 26-976): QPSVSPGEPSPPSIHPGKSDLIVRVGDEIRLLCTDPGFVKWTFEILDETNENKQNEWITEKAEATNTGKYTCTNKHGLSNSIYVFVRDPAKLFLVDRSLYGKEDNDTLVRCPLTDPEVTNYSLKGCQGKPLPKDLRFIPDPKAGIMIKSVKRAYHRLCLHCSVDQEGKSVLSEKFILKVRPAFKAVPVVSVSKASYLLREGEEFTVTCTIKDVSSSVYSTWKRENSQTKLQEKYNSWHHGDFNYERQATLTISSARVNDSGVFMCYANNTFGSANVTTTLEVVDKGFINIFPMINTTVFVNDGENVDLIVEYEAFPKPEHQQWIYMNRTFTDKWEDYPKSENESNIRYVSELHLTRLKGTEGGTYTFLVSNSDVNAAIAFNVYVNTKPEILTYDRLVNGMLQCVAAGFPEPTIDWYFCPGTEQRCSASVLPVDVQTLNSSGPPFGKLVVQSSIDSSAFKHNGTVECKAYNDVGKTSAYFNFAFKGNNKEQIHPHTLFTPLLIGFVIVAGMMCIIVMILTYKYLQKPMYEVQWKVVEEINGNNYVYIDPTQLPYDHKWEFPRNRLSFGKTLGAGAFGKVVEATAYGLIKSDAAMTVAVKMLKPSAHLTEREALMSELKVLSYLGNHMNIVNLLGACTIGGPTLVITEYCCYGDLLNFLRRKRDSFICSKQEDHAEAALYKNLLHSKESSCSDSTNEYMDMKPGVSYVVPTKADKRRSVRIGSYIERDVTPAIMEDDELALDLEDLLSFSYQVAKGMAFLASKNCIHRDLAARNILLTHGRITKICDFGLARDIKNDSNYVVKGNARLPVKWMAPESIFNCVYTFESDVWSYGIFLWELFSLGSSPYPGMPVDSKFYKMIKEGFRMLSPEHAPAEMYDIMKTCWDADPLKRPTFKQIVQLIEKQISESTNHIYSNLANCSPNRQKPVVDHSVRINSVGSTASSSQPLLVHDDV

PLK1, sequence (P53350 whole entry, species assumed): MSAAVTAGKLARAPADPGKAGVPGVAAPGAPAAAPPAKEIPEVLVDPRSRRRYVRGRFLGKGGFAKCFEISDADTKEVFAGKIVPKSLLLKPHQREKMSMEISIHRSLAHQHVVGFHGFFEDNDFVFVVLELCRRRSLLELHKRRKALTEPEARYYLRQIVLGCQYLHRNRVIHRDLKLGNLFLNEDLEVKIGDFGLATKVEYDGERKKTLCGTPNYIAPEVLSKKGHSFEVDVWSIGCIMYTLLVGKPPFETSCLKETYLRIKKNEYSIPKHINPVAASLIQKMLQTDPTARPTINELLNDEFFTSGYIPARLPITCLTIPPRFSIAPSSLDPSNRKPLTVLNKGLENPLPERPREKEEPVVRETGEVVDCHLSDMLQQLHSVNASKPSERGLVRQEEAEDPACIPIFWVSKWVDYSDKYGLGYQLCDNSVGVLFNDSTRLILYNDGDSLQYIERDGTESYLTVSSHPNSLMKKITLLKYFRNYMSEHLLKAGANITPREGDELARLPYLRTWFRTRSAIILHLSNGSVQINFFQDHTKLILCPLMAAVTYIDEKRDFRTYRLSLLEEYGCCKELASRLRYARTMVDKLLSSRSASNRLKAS

## Cc1oncc1C(=O)Nc1ccc2cnc(-c3cc(N4CCN(C)CC4)cc(C(F)(F)F)c3)nc2c1 [Compound 7d, 5-methyl-N-(2-(3-(4-methylpiperazin-1-yl)-5-(trifluoromethyl)phenyl)quinazolin-7-yl)isoxazole-4-carboxamide]
PLK1
  inhibition at 10 µM: 0%
PKA
  inhibition at 10 µM: 2.5%
CDK4/cyclin D1
  inhibition at 10 µM: 3.01%
LCK
  inhibition at 10 µM: 19.7%
ABL1
  inhibition at 10 µM: 6.46%
c-Src
  inhibition at 10 µM: 14.6%
Aurora A
  inhibition at 10 µM: 20.1%
AXL
  inhibition at 10 µM: 21.2%
FLT3-ITD
  % inhibition rate: 95.2%
AKT1
  inhibition at 10 µM: 5.48%
ALK
  inhibition at 10 µM: 17%
FLT3
  % inhibition rate: 96.6%
JAK3
  inhibition at 10 µM: 0.8%
JNK3
  inhibition at 10 µM: 19.5%
BTK
  inhibition at 10 µM: 17.5%
ERK1
  inhibition at 10 µM: 15%
EGFR
  inhibition at 10 µM: 0%
P38a/MAPK14
  inhibition at 10 µM: 0%
FLT1/VEGFR1
  inhibition at 10 µM: 5.23%
CAMKK1
  inhibition at 10 µM: 0%
LYN
  inhibition at 10 µM: 20.5%
FMS
  inhibition at 10 µM: 5.49%
[1]
  IC50: 728 nM
FLT3 (F594_R595 ins EY)
  IC50: 495 nM
FLT3 (D835Y)
  IC50: 228 nM
FLT3 (F594_R595 ins R)
  IC50: 524 nM
c-Kit
  % inhibition rate: did not exhibit inhibitory activity
c-Kit; read-out: % inhibition rate
  inhibition at 10 µM: 0%

Reference: patent publication US12617758B2, “Quinazoline derivative having FLT3 inhibitory activity, and use thereof” (INDUSTRY-UNIVERSITY COOPERATION FOUNDATION HANYANG …, priority 2020, dated 2026)
